Measured values from patent US8945921B2, “Modulating the production of neurons and/or oligodendrocytes from white matter progenitor cells” (Cornell Research Foundation, Inc., priority 2003, dated 2015).

System: adult human white matter progenitor cells (WMPCs)
Assay: Tyrosine phosphatase inhibition: oligodendrocyte differentiation of cultured WMPCs (A2B5/O4/BrdU immunocytochemistry)
Format: cell-based
Procedure: WMPCs were distributed onto 12-well plates coated with poly-L-ornithine and fibronectin at 5×10^4 cells/ml in DMEM/F12/N1 supplemented with 10 ng/ml bFGF (Sigma), 10 ng/ml PDGF-AA (Sigma), and 2 ng/ml NT3 (R&D Systems). Stock solutions of 1 μM bpV(phen) (potassium bisperoxo (1,10-phenanthroline) oxovanadate (V); Calbiochem) were prepared before each use. Cells were exposed to concentrations of 0, 1, 5, 10, and 25 ng/ml of bV(phen) immediately upon plating, and every 2 days thereafter for 7 day in vitro.
Cultures were exposed continuously to 10 μg/ml BrdU beginning 24 hours before fixation. After 7 days in vitro, A2B5 and O4 were immunolabeled as previously described (Roy et al., “Identification, Isolation, and Promoter-defined Separation of Mitotic Oligodendrocyte Progenitor Cells from the Adult Human Subcortical White Matter,” J. Neurosci 19:9986-95 (1999), which is hereby incorporated by reference in its entirety). For multiple antigen labeling, O4 and A2B5 were localized on live cells that were then fixed with 4% paraformaldehyde and immunostained for BrdU. O4 supernatant was used at a dilution of 1:100 and monoclonal antibody A2B5 supernatant (clone 105, American Type Culture Collection) was used in a 1:1 ratio with DMEM/F12/N, both for 40 minutes at 4° C. Rat anti-BrdU antibody (Harlan) was used at a dilution of 1:200. Fixed cultures were counterstained with DAPI (10 ng ml; Molecular Probes). The number of A2B5 and O4 stained and unstained cells were counted in 10 randomly chosen fields at each dosage level, from individual replicate samples (n=4). Statistical significance was assessed by one-way repeated measures analysis of variance (ANOVA), followed by Tukey's multiple comparisons test (GraphPad Prism 3.0, p<0.05).
Due to the high expression of the tyrosine phosphatase receptor RTPβ/ζ in WMPCs, the effect of tyrosine phosphatase inhibition on the differentiation of WMPCs was assessed. bpV(phen), a known potent inhibitor of tyrosine phosphatase activity, was used to induce inhibition (Posner et al., “Peroxovanadium Compounds. A New Class of Potent Phosphotyrosine Phosphatase Inhibitors Which Are Insulin Mimetics,” J Biol Chem 269: 4596-4604 (1994); Bevan et al., “Selective Activation of the Rat Hepatic Endosomal Insulin Receptor Kinase. Role for the Endosome in Insulin Signaling,” J Biol Chem 270: 10784-10791 (1995); Faure et al., “Arrest at The G2/M Transition of the Cell Cycle by Protein-Tyrosine Phosphatase Inhibition Studies on a Neuronal and a Glial Cell Line,” J Cell Biochem 59: 389-401 (1995), which are hereby incorporated by reference in their entirety). […] Statistical significance was first detected at 1 ng/ml bpV(phen) in the A2B5 positive population and 10 ng ml bpV(phen) in the O4 positive population. The O4/A2B5 ratio rose drastically from under 10 percent to 70 percent in response to 25 ng/ml treatment with bpV(phen) (FIG. 1E).

[1] = 7 days in vitro, doses 0, 1, 5, 10, 25 ng/ml
[2] = between dosage levels 0-25 ng/ml, 7 days in vitro

## O.O.O.OO.OO.[K+].[OH-].[V].c1cnc2c(c1)ccc1cccnc12 [bpV(phen), potassium bisperoxo (1,10-phenanthroline) oxovanadate (V)]
25 ng ml, 7 days in vitro, n=4 patients, untreated 20±8.4%
  percentage of O4+ cells: 54±17.6%
25 ng/ml, 7 days in vitro, n=4 patients, untreated 15±2.2%
  percentage of progenitor A2B5+ cells: 4±0.5%
25 ng/ml, 7 days in vitro, untreated under 10 percent
  O4/A2B5 ratio: 70%
[1]
  concentration at which statistical significance was first detected, A2B5 positive population: 1 ng/mL
  concentration at which statistical significance was first detected, O4 positive population: 10 ng·mL
WMPCs exposed to the RTP inhibitor
  effect on WMPC expansion and differentiation: ceased expansion and differentiated as oligodendrocytes
[2]
  number of A2B5+ BrdU+ cells: unchanged
  total cell number: unchanged
